Counter-ions that a name gives are not always drawn.

For orientation: Ki means the equilibrium dissociation constant of an inhibitor or competing ligand from its target. As a reminder, the IC50 is the concentration needed to halve the response being measured.

The first test deals with recombinant human SOS1 polypeptide (amino acids 560-1049) (Homo sapiens (Human), UniProt Q07889). As to the kind of experiment: biochemical. The class given is binding. The settings on record: HTRF displacement, Cy5 labelled tracer, Morrison equation for competitive binding; read-out: Ki, Inhibition of Labeled Tracer Binding to SOS1. In general terms: Time-resolved FRET reads energy transfer from a long-lived donor to a nearby acceptor.
recombinant human SOS1 polypeptide (amino acids 560-1049), sequence (Q07889 560-1049): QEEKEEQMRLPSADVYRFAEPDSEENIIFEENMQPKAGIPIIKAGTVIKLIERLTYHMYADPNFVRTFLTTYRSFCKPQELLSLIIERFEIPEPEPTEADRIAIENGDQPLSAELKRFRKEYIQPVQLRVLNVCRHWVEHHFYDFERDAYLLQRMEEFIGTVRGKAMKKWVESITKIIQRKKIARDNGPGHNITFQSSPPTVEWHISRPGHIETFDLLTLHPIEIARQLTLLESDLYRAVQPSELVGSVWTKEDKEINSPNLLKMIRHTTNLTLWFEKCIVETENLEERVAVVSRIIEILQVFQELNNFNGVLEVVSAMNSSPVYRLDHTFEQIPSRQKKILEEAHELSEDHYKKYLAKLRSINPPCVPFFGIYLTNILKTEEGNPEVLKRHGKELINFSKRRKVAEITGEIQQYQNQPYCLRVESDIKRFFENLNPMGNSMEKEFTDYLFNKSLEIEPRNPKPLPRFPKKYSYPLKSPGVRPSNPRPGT
Regarding `Cc1c(C#N)cccc1[C@@H](C)Nc1nnc(C)c2cnc(N3CC[C@H](N(C)C)C3)cc12` [Example 12-69], the Ki came to 0.93 nM.

In the case of `Cc1c(F)cccc1[C@@H](C)Nc1nnc(C)c2cnc(N3CC4CC(C3)O4)cc12` [Example 12-126], the inhibition constant Ki came to 14 nM.

Consider `Cc1nnc(N[C@H](C)c2cccc(C#N)c2C(F)(F)F)c2cc(N3C[C@H]4C[C@@H]3CO4)ncc12` [Example 12-127], for which the inhibition constant Ki stood at 6.08 nM.

For the molecule `Cc1c(C#N)cccc1[C@@H](C)Nc1nnc(C)c2ccc(N3CC4(CCCN4C)C3)cc12` [Example 10-84, (R)-2-methyl-3-(1-((4-methyl-7-(5-methyl-2,5-diazaspiro[3.4]octan-2-yl)phthalazin-1-yl)amino)ethyl)benzonitrile], the Ki came out at 2.01 nM.

`Cc1nnc(N[C@H](C)c2cc(F)cc(C#N)c2F)c2cc(N3CCN4CCOC[C@@H]4C3)ncc12` [Example 12-120]: the inhibitory constant (Ki) was found to be 49.8 nM.

In the case of `Cc1c(C#N)cccc1[C@@H](C)Nc1nnc(C)c2cnc(N3CCN4CCC[C@@H]4C3)cc12` [Example 12-73], the Ki is 1.67 nM.

As to `Cc1c(C#N)cccc1[C@@H](C)Nc1nnc(C)c2cnc(N3CC(C)(N4CCOCC4)C3)cc12` [Example 12-87], the Ki came out at 3.17 nM.

On to `Cc1nnc(N[C@H](C)c2cccc(F)c2F)c2cc(N3CC4CC(C3)O4)ncc12` [Example 12-98], for which the Ki amounted to 19 nM.

As for `Cc1c(F)cccc1[C@@H](C)Nc1nnc(C)c2cnc(N3CC(C)(O)C3)cc12` [Example 12-81], the Ki is 29 nM.

Take `Cc1c([C@@H](C)Nc2nnc(C)c3cnc(N4CC(C)(O)C4)cc23)cc(F)cc1C(F)(F)F` [Example 12-111]: the Ki is 8.09 nM.

Turning to `Cc1nnc(N[C@H](C)c2cccc(F)c2Cl)c2cc(N3CC4CC(C3)O4)ncc12` [Example 12-77], the Ki was 28.5 nM.

Take `Cc1c([C@@H](C)Nc2nnc(C)c3cnc(N4C[C@H]5C[C@@H]4CO5)cc23)cc(F)cc1C(F)(F)F` [Example 12-109]: the inhibition constant (Ki) is 2.61 nM.

For `Cc1nnc(N[C@H](C)c2cc(F)cc(C#N)c2F)c2cc(N3CC4CC(C3)O4)ncc12` [Example 12-121], the Ki came out at 39.2 nM.

As for `CCN1CCN(c2cc3c(N[C@H](C)c4cccc(C(F)(F)F)c4F)nnc(C)c3cn2)CC1` [Example 12-68], the Ki is 0.37 nM.

Turning to `Cc1c(C#N)cc(F)cc1[C@@H](C)Nc1nnc(C)c2cnc(N3CC(C)(N(C)C)C3)cc12` [Example 12-108], the Ki was found to be 22.1 nM.

As to `Cc1nnc(N[C@H](C)c2cc(F)cc(C#N)c2F)c2cc(N3CC(C)(N(C)C)C3)ncc12` [Example 12-122], the inhibition constant (Ki) was 170 nM.

On to `Cc1c(C#N)cc(F)cc1[C@@H](C)Nc1nnc(C)c2cnc(N3CC(C)(O)C3)cc12` [Example 12-107], for which the inhibitory constant (Ki) was determined as 35.6 nM.

Take `Cc1c([C@@H](C)Nc2nnc(C)c3cnc(N4CC(C)(N(C)C)C4)cc23)cc(F)cc1C(F)(F)F` [Example 12-110]: the inhibition constant Ki is 3.54 nM.

Turning to `Cc1nnc(N[C@H](C)c2cccc(C(F)(F)F)c2F)c2cc(N3CCN4CCOC[C@@H]4C3)ncc12` [Example 12-63], the Ki was 0.83 nM.

With `Cc1nnc(N[C@H](C)c2cc(N)cc(C(F)(F)F)n2)c2cc(N3CCN(C)CC3)ncc12` [Example 16-12, (R)-N-(1-(4-amino-6-(trifluoromethyl)pyridin-2-yl)ethyl)-4-methyl-7-(4-methylpiperazin-1-yl)pyrido[3,4-d]pyridazin-1-amine], the Ki came to 9.58 nM.

Regarding `CNCc1cccc([C@@H](C)Nc2nnc(C)c3cc(OC)c(OC)cc23)c1C` [Example 5-3, (R)-6,7-dimethoxy-4-methyl-N-(1-(2-methyl-3-((methylamino)methyl)phenyl)ethyl)phthalazin-1-amine], the inhibition constant Ki turned out to be 390 nM.

With `Cc1c([C@@H](C)Nc2nnc(C)c3cnc(N4CC5CC(C4)O5)cc23)cc(F)cc1C(F)(F)F` [Example 12-113], the inhibition constant Ki was 2.62 nM.

In the case of `Cc1nnc(N[C@H](C)c2cccc(C(F)F)c2F)c2cc(N3C[C@H]4C[C@@H]3CO4)ncc12` [Example 12-99], the Ki came to 0.93 nM.

With `Cc1nnc(N[C@H](C)c2cc(F)cc(C#N)c2F)c2cc(N3C[C@H]4C[C@@H]3CO4)ncc12` [Example 12-114], the Ki was determined as 69.3 nM.

On to `Cc1nnc(N[C@H](C)c2cccc(C(F)F)c2F)c2cc(N3CCN4CCOC[C@@H]4C3)ncc12` [Example 12-100], for which the Ki is 1.07 nM.

Regarding `Cc1c([C@@H](C)Nc2nnc(C)c3cnc(N4CCN5CCOC[C@@H]5C4)cc23)cc(F)cc1C(F)(F)F` [Example 12-112], the Ki came out at 2.2 nM.

As for `CNCc1cccc([C@@H](C)Nc2nnc(C)c3ccc(N4CCOCC4)cc23)c1C` [Example 6-8, (R)-4-methyl-N-(1-(2-methyl-3-((methylamino)methyl)phenyl)ethyl)-7-morpholinophthalazin-1-amine], the Ki is 39.2 nM.

As to `CCN1CCN(c2cc3c(N[C@H](C)c4cccc(C(F)F)c4F)nnc(C)c3cn2)CC1` [Example 12-102], the Ki is 0.25 nM.

Consider `Cc1c(C#N)cccc1[C@@H](C)Nc1nnc(C)c2cnc(N3CCN4CCCC[C@@H]4C3)cc12` [Example 12-86], for which the Ki is 0.98 nM.

Regarding `Cc1nnc(N[C@H](C)c2cc(F)cc(C#N)c2F)c2cc(N3CCC(C)(N(C)C)CC3)ncc12` [Example 12-123], the Ki was 50.4 nM.

With `CNCc1nnc(N[C@H](C)c2cccc(C#N)c2C)c2cc(N3C[C@H]4C[C@@H]3CO4)ncc12` [Example 14-3, 3-((R)-1-((7-((1R,4R)-2-oxa-5-azabicyclo[2.2.1]heptan-5-yl)-4-((methylamino)methyl)pyrido[3,4-d]pyridazin-1-yl)amino)ethyl)-2-methylbenzonitrile], the inhibitory constant (Ki) was 14.5 nM.

Regarding `Cc1c(C#N)cccc1[C@@H](C)Nc1nnc(C)c2cc(F)c(N3CCN(C)CC3)cc12` [Example 18-3, (R)-3-(1-((6-fluoro-4-methyl-7-(4-methylpiperazin-1-yl)phthalazin-1-yl)amino)ethyl)-2-methylbenzonitrile], the Ki is 1.37 nM.

As for `Cc1c(C#N)cccc1[C@@H](C)Nc1nnc(C)c2cnc(N3CC4(CCCN4C)C3)cc12` [Example 12-88], the Ki is 2.03 nM.

With `Cc1nnc(N[C@H](C)c2cccc(F)c2Cl)c2cc(N3CCN4CCOC[C@@H]4C3)ncc12` [Example 12-74], the Ki came to 10.5 nM.

With `Cc1nnc(N[C@H](C)c2cc(N)cc(C(F)(F)F)n2)c2cc(N3CC(C)(N(C)C)C3)ncc12` [Example 16-11, (R)-N-(1-(4-amino-6-(trifluoromethyl)pyridin-2-yl)ethyl)-7-(3-(dimethylamino)-3-methylazetidin-1-yl)-4-methylpyrido[3,4-d]pyridazin-1-amine], the Ki came out at 108 nM.

`Cc1c(C#N)cccc1[C@@H](C)Nc1nnc(C)c2ccc(N3CCN4CCC[C@@H]4C3)cc12` [Example 10-81, 3-((R)-1-((7-((R)-hexahydropyrrolo[1,2-a]pyrazin-2(1H)-yl)-4-methylphthalazin-1-yl)amino)ethyl)-2-methylbenzonitrile]: the Ki was 0.9 nM.

`Cc1cccc([C@@H](C)Nc2nnc(C)c3cnc(N4CC5CC(C4)O5)cc23)c1F` [Example 12-134]: the Ki amounted to 7.1 nM.

In the case of `Cc1c(C#N)cccc1[C@@H](C)Nc1nnc(C)c2cnc(N3C[C@H]4CC[C@@H]3CN4CCO)cc12` [Example 12-89], the Ki worked out at 0.25 nM.

Consider `Cc1c(C#N)cccc1[C@@H](C)Nc1nnc(C)c2cnc(N3CC4(CCOC4)C3)cc12` [Example 12-71], for which the Ki is 4.48 nM.

Consider `Cc1nnc(N[C@H](C)c2cccc(C(F)(F)F)c2F)c2cc(N3CCN(C)CC3)ncc12` [Example 12-67], for which the Ki stood at 0.36 nM.

Still in this test, the particulars now being: read-out: Ki, Inhibition of Labeled Tracer Binding to SOS1.
On to `Cc1c(C#N)cccc1[C@@H](C)Nc1nnc(C)c2ccc(N3CC4(CCOC4)C3)cc12` [Example 10-80, (R)-2-methyl-3-(1-((4-methyl-7-(6-oxa-2-azaspiro[3.4]octan-2-yl)phthalazin-1-yl)amino)ethyl)benzonitrile Hydrochloride salt], for which the Ki is 5.75 nM.

Regarding `Cc1c(C#N)cccc1[C@@H](C)Nc1nnc(C)c2ccc(N3CC(C)(N4CCOCC4)C3)cc12` [Example 10-83, (R)-2-methyl-3-(1-((4-methyl-7-(3-methyl-3-morpholinoazetidin-1-yl)phthalazin-1-yl)amino)ethyl)benzonitrile Formate salt], the Ki stood at 4.54 nM.

For another test, the system named is pERK in MKN1 cells. As to the kind of experiment: cells. The settings on record: Homo sapiens, MKN-1, pERK inhibition, In-Cell Western; MKN1 or H358 cells (Table 24 does not say which); 0.5-1 hour incubation. The class given is cell-based.
Regarding `Cc1c([C@@H](C)Nc2nnc(CN)c3ccc(N4CCOCC4)cc23)cccc1C(F)(F)F` [Example 14-2, (R)-4-(aminomethyl)-N-(1-(2-methyl-3-(trifluoromethyl)phenyl)ethyl)-7-morpholinophthalazin-1-amine], the concentration for half-maximal inhibition (IC50) amounted to 139 nM.

Staying with this test, now noted: Homo sapiens, MKN-1, pERK inhibition, In-Cell Western; MKN1 or H358 cells (Table 24 does not say which); 0.5-1 hour incubation; read-out: IC50.
Turning to `Cc1c([C@@H](C)Nc2nncc3ccc(N4CCCCC(N(C)C)C4)cc23)cccc1C(F)(F)F` (stereo partly drawn) [Example 1-50, 7-(3-(dimethylamino)azepan-1-yl)-N-((R)-1-(2-methyl-3-(trifluoromethyl)phenyl)ethyl)phthalazin-1-amine], the IC50 amounted to 453 nM.

In the case of `Cc1c([C@@H](C)Nc2nncc3ccc(N4CCOC5(CCOC5)C4)cc23)cccc1C(F)(F)F` (stereo partly drawn) [Example 1-41, N-((R)-1-(2-methyl-3-(trifluoromethyl)phenyl)ethyl)-7-(2,6-dioxa-9-azaspiro[4.5]decan-9-yl)phthalazin-1-amine], the half-inhibitory concentration (IC50) was determined as 195 nM.

As to `Cc1c([C@@H](C)Nc2nnc(C)c3ccc(-n4ncc5c4CNC5)cc23)cccc1C(F)(F)F` [Example 10-15, (R)-7-(5,6-dihydropyrrolo[3,4-c]pyrazol-1(4H)-yl)-4-methyl-N-(1-(2-methyl-3-(trifluoromethyl)phenyl)ethyl)phthalazin-1-amine], the IC50 is 844 nM.

On to `Cc1cc(C)n(-c2ccc3c(C)nnc(N[C@H](C)c4cccc(C(F)(F)F)c4C)c3c2)n1` [Example 10-14, (R)-7-(3,5-dimethyl-1H-pyrazol-1-yl)-4-methyl-N-(1-(2-methyl-3-(trifluoromethyl)phenyl)ethyl)phthalazin-1-amine], for which the IC50 was 1150 nM.

For the origin of these results see US11702418B2, “SOS1 inhibitors” (priority 2019, dated 2023).
